Laboratory results as given in patent publication US5652222A, “Selective inhibition of leukemic cell proliferation by bcr-abl antisense oligonucleotides” (Temple University-of The Commonwealth System of Higher …, priority 1993, dated 1997).
Entries after “also recorded” stand apart in the source; their conditions may differ.

Experiments:
CML chronic phase = settings: cited from earlier work; for control of the excessive granulopoiesis of CML: human, in vivo; for median survival: standard approach to treatment of CML chronic phase
[1] = tested on: nucleic acid synthesis in both normal and leukemic cells; settings: cited from earlier work
chronic phase CML = settings: cited from earlier work
[2] = tested on: cells of CML patients in blast crisis, K-28 (b3a2) type junction; experiment: Colony formation of CML blast crisis patient cells expressing the b3a2 (K-28) junction; type: cell-based, human; settings: for Number of Colonies, Antisense-treated: conditions of Example 1
Description: To identify CML blast crisis patients carrying the second common type junction, in which bcr exon 3 is juxtaposed to c-abl exon 2, total RNA derived from cells of CML patients in blast crisis was reverse-transcribedwith synthetic primers. The 3' primer (SEQ ID NO:10) was complementary to 22 nucleotides of c-abl. exon 2. The 5' primer was the 22-mer GTCATCGTCCACTCAGCCACTG (SEQ ID NO:12) complementary to 22 nucleotides of bcr exon 3. The RNA was amplified by polymerase chain reaction according to Example 1. The amplification products were then hybridized with the synthetic 18-mer oligonucleotide GAAGGGCTTT TGAACTCT (SEQ ID NO:6), which is complementary to the b3a2 junction. After cloning of breakpoints in two patients, sequence analysis of several clones identified the b3a2 junction as precisely corresponding to the K-28 breakpoint shown in FIG. 3. (SEQ ID NO:4).
Utilizing the culture condition and oligomer treatment conditions of Example 1, cells were exposed to either no oligomer (FIG. 4A), the 18-nucleotide synthetic oligomer GAAGTGCTGT TGAACTCT (SEQ ID NO:5) partially complementary to the b3a2 junction, containing 9 nucleotides corresponding to bcr and 9 nucleotides corresponding to c-abl but with two mismatches (FIG. 4B); or the 18-nucleotide synthetic oligomer GAAGGGCTTT TGAACTCT (SEQ ID NO:6) completely complementary to the same bcr-abl junction (FIG. 4C).

BV173 cells (b2/a2) = experiment: Proliferation of BV173 cells expressing b2a2 junction; type: cell-based, human; settings: in comparison to untreated control cells (FIG. 7)
Experimental: Amplification of the bcr-abl junction with a 5' primer corresponding to bcr exon 2, and a 3' primer corresponding to abl exon 2, followed by hybridization to an 18-mer specific for the b2/a2 or the b3/a2 junction identified the b2/a2 breakpoint in these cells (data not shown).
The sensitivity of the BV173 cells to b2/a2 antisense phosphorothioate oligodeoxynucleotides was assessed. Phosphorothioate oligodeoxynucleotides were prepared on either an Applied Biosystems Model 380B or 390Z Automated Synthesis instrument using conventional phosphoramidite monomers and manufacturer-recommended procedures, which included substitution of tetraethylthiuran (or an equivalent sulfur-donor reagent) for iodine-water-pyridine, […] reversed-phase preparative chromatography, detritylation, and obtaining the final product in the form of its sodium salt, all according to previously published methodology: Zon and Stec, in Oligonucleotides and Analogues A Practical Approach, F. Eckstein, Ed. (Oxford Univerisity Press, Oxford 1991), pp. 87-108; Zon and Geiser, Anti-Cancer Drug Design 6, 539 (1991); Vu and Hirschenbein, Tetrahedron Lett. 32, 3005-3008 (1991).
BV173 cells were cultured in the presence of phosphorothioate b2/a2 antisense 26-mer CGCTGAAGGG CTTCTTCCT ATTGAT (SEQ ID NO:29), the phosphorothioate sense sequence ATCAATAAGGAAGCCCTTCAGCG (SEQUENCE ID NO:34), or the b3/a2 (SEQ ID NO:31) or b1/a2 (SEQ ID N0:33) phosphorothioate antisense 26-mer. […] The sense oligomer SEQ ID NO:34 gave no inhibition (FIG. 7, -.largecircle.-) in comparison to untreated control cells (FIG. 7, -.quadrature.-).

[3] = alpha-interferon treated CML patients

CS(=O)(=O)OCCCCOS(C)(=O)=O [busulfan]
control of the excessive granulopoiesis of CML (CML chronic phase): useful in the control of the excessive granulopoiesis of CML
median survival (CML chronic phase): about 47 months
inhibition of nucleic acid synthesis [1]: inhibit nucleic acid synthesis in both normal and leukemic cells; also recorded: inhibit nucleic acid synthesis both in normal and leukemic cells

NC(=O)NO [hydroxyurea]
control of the excessive granulopoiesis of CML (CML chronic phase): useful in the control of the excessive granulopoiesis of CML
median survival (CML chronic phase): about 47 months
inhibition of nucleic acid synthesis [1]: inhibit nucleic acid synthesis in both normal and leukemic cells; also recorded: inhibit nucleic acid synthesis both in normal and leukemic cells

Alpha-interferon
patients with normalization of the blood count (chronic phase CML; 3-9 million units intramuscularly each day, chronic phase CML): about three quarters
side effects (chronic phase CML; CML patients): fever, anorexia, muscle and bone pain, depression, and often immune thrombocytopenia
patients with a decrease in Ph1-chromosome-containing metaphases (chronic phase CML; [3]): more than one third
treated patients having fewer than 5% Ph1-positive cells (chronic phase CML; [3]): about 15%
specificity of effect on leukemic clone (chronic phase CML; human, in vivo): non-specific, as indicated by the persistence of Ph^1 leukemic cells and the inhibition of normal hematopoietic cell growth

SEQ ID NO:6: 18-nucleotide synthetic oligomer GAAGGGCTTT TGAACTCT completely complementary to the b3a2 (K-28) junction (antisense GAAGGGCTTTTGAACTCT; further chemistry not given here)
Number of Colonies, Antisense-treated ([2]; Table 2, patient 1, untreated 278 ± 28): 102 ± 14 colonies
Number of Colonies, Antisense-treated ([2]; Table 2, patient 2, untreated 182 ± 18): 68 ± 12 colonies
% Inhibition ([2]; Table 2, patient 2, number of colonies vs untreated): 63%

SEQ ID NO:31: b3/a2 phosphorothioate antisense 26-mer CGCTGAAGGGCTT TTGAA&TCTGCTT (antisense CGCTGAAGGGCTTTTGAACTCTGCTT; all phosphorothioate, sugars by position and methylation of C not given here)
inhibition of proliferation of BV173 cells (BV173 cells (b2/a2)): Only the b2/a2 antisense oligodeoxynucleotide inhibited the proliferation of BV173 cells

SEQ ID NO:33: b1/a2 phosphorothioate antisense 26-mer CGCTGAAGGGCTT CTGCGTCTCCATG (antisense CGCTGAAGGGCTTCTGCGTCTCCATG; all phosphorothioate, sugars by position and methylation of C not given here)
inhibition of proliferation of BV173 cells (BV173 cells (b2/a2)): Only the b2/a2 antisense oligodeoxynucleotide inhibited the proliferation of BV173 cells
